Data as given in ChEMBL document CHEMBL1201862, “PubChem BioAssay data set” (2004).
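Each compound was tested at five concentrations against cells in 96-well plates for 48 hours. GI50 is the concentration that inhibits growth by half.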 Calls of active or inactive are those of the source. Rule as the data show it: active = GI50 up to about 1.1 µM and inactive = higher.

Experiments:
Assay in all cases: NCI-60 cell line screen, 48 h
KM12 = system: KM12
SF-268 = system: SF-268
SK-OV-3 = system: SK-OV-3
SW-620 = system: SW-620
SK-MEL-28 = system: SK-MEL-28
BT-549 = system: BT-549
Malme-3M = system: Malme-3M
UACC-62 = system: UACC-62
NCI/ADR-RES = system: NCI/ADR-RES
HT-29 = system: HT-29
SF-295 = system: SF-295
OVCAR-3 = system: OVCAR-3
MOLT-4 = system: MOLT-4
HCT-116 = system: HCT-116
CCRF-CEM = system: CCRF-CEM
IGROV-1 = system: IGROV-1
MDA-N = system: MDA-N
MCF7 = system: MCF7
SR = system: SR
HL-60 = system: HL-60

Compound	GI50 (KM12)	GI50 (SF-268)	GI50 (SK-OV-3)	GI50 (SW-620)	GI50 (SK-MEL-28)	GI50 (BT-549)	GI50 (Malme-3M)	GI50 (UACC-62)	GI50 (NCI/ADR-RES)	GI50 (HT-29)	GI50 (SF-295)	GI50 (OVCAR-3)	GI50 (MOLT-4)	GI50 (HCT-116)	GI50 (CCRF-CEM)	GI50 (IGROV-1)	GI50 (MDA-N)	GI50 (MCF7)	GI50 (SR)	GI50 (HL-60)
Cn1nc(S(N)(=O)=O)s/c1=N/S(=O)(=O)c1ccc(N)cc1	> 100 µM (inactive)	> 100 µM (inactive)	> 100 µM (inactive)	> 100 µM (inactive)	> 100 µM (inactive)	> 100 µM (inactive)	> 100 µM (inactive)	> 100 µM (inactive)	> 100 µM (inactive)	> 100 µM (inactive)	> 100 µM (inactive)	> 100 µM (inactive)	> 100 µM (inactive)	–	–	–	–	–	–	–
S=c1[nH]c(Cl)cc2nc(Cl)cn12	4.14 µM (inactive)	5.11 µM (inactive)	2.93 µM (inactive)	6.68 µM (inactive)	8.2 µM (inactive)	9.89 µM (inactive)	2.65 µM (inactive)	6.93 µM (inactive)	2.54 µM (inactive)	4.66 µM (inactive)	2.88 µM (inactive)	2.59 µM (inactive)	–	3.82 µM (inactive)	2.52 µM (inactive)	4.34 µM (inactive)	1.98 µM (inactive)	3.13 µM (inactive)	–	–
CC(C)(CC#N)c1cc(CC(C)(C)c2cc(CC(C)(C)c3cc(C(C)(C)C4(C)OCCO4)no3)no2)no1	> 100 µM (inactive)	39.4 µM (inactive)	27.1 µM (inactive)	> 100 µM (inactive)	> 100 µM (inactive)	52.5 µM (inactive)	91 µM (inactive)	41.9 µM (inactive)	47.2 µM (inactive)	> 100 µM (inactive)	31 µM (inactive)	56 µM (inactive)	> 100 µM (inactive)	51.4 µM (inactive)	45.8 µM (inactive)	54.1 µM (inactive)	51.1 µM (inactive)	19.1 µM (inactive)	–	–
N=NCC(=O)OC(COCc1ccccc1)COCc1ccccc1	31.4 µM (inactive)	> 100 µM (inactive)	> 100 µM (inactive)	> 100 µM (inactive)	> 100 µM (inactive)	> 100 µM (inactive)	> 100 µM (inactive)	> 100 µM (inactive)	–	> 100 µM (inactive)	95.5 µM (inactive)	> 100 µM (inactive)	39.7 µM (inactive)	> 100 µM (inactive)	57.8 µM (inactive)	> 100 µM (inactive)	–	65 µM (inactive)	> 100 µM (inactive)	56.6 µM (inactive)
O=C(Nc1ccc(C(F)(F)F)cc1)NC(F)(F)F	–	> 100 µM (inactive)	> 100 µM (inactive)	> 100 µM (inactive)	> 100 µM (inactive)	> 100 µM (inactive)	–	–	> 100 µM (inactive)	> 100 µM (inactive)	–	–	> 100 µM (inactive)	> 100 µM (inactive)	> 100 µM (inactive)	> 100 µM (inactive)	> 100 µM (inactive)	–	> 100 µM (inactive)	> 100 µM (inactive)
CC(C)OP(=O)(OC(C)C)C(C(C)C)N(C)/C(N)=N\C1=NC(C(F)(F)F)(C(F)(F)F)N=C(C(C(F)(F)F)C(F)(F)F)O1 (centres undefined)	3.4 µM (inactive)	2.62 µM (inactive)	5.4 µM (inactive)	2.28 µM (inactive)	3.18 µM (inactive)	2.79 µM (inactive)	4.51 µM (inactive)	2.01 µM (inactive)	–	2.46 µM (inactive)	3.66 µM (inactive)	3.27 µM (inactive)	1.49 µM (inactive)	2.31 µM (inactive)	0.664 µM (active)	2.39 µM (inactive)	2.14 µM (inactive)	3.79 µM (inactive)	1.9 µM (inactive)	1.12 µM (inactive)
